In patent publication US11596639B2, “Substituted indole Mcl-1 inhibitors” (Vanderbilt University, priority 2016, dated 2023):
Where two headings read alike, the source gives them in different places.

What was measured:
[1] = molecular target: Mcl-1 (Homo sapiens (Human), UniProt Q07820); experiment: Fluorescence polarization anisotropy (FPA) competition assay, FITC-Bak or FITC-Bim BH3 peptide; format: binding; conditions: read-out: Ki for Inhibition of Mcl-1 by FPA assay
[2] = system: H929 human cancer cell lines; experiment: Cellular viability / proliferation (Cell TiterGlo, 72 h); format: cell-based
Method in brief: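 Cells were seeded at 1,000 cells/well in medium with 10% FBS and dosed 24 h later with a 2-fold serial dilution of compound (top concentration 50 μM, final DMSO <1%).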

[3] = H929 cells, 72 h, Cell TiterGlo, 10% FBS, read-out: GI50 on cellular proliferation of H929 human cancer cell lines
[4] = Homo sapiens, NCI-H929, 72 h, read-out: GI50 on cellular proliferation of H929 human cancer cell lines, H929 cells, 72 h, Cell TiterGlo, 10% FBS

Chain of Mcl-1 (Q07820 172-327): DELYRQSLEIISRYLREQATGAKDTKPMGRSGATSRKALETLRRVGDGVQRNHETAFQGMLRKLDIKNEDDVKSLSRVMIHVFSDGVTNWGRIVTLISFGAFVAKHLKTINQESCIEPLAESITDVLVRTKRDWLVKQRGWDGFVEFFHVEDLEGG

SMILES	Ki [1] [µM]	GI50 [2, 3] [µM]	GI50 [2, 4] [µM]
Cc1cc(OCCCc2c3n(c4c(-c5c(C)nn(C)c5C)c(Cl)ccc24)[C@H](C)CN(c2cc(O)cc4c2cc(C(=O)O)n4C)C3=O)cc(C)c1Cl [Example 305, (M, R)-4-(7-chloro-10-(3-(4-chloro-3,5-dimethylphenoxy)propyl)-4-methyl-1-oxo-6-(1,3,5-trimethyl-1H-pyrazol-4-yl)-3,4-dihydropyrazino[1,2-a]indol-2(1H)-yl)-6-hydroxy-1-methyl-1H-indole-2-carboxylic acid]	< 0.001	6.2	–
Cc1cc(OCCCc2c3n(c4c(-c5c(C)nn(C)c5C)c(Cl)ccc24)[C@H](C)CN(c2cccc4cc(C(=O)O)n(CC5CC5)c24)C3=O)cc(C)c1Cl [Example 254, 7-[(4R)-7-chloro-10-[3-(4-chloro-3,5-dimethyl-phenoxy)propyl]-4-methyl-1-oxo-6-(1,3,5-trimethylpyrazol-4-yl)-3,4-dihydropyrazino[1,2-a]indol-2-yl]-1-(cyclopropylmethyl)indole-2-carboxylic acid]	< 0.001	–	0.58
CCn1ncc2c(C(=O)O)cc(N3CCCn4c(c(CCCOc5cc(C)c(Cl)c(C)c5)c5ccc(Cl)c(-c6c(C)nn(C)c6C)c54)C3=O)cc21 [Example 39, 6-[8-chloro-11-[3-(4-chloro-3,5-dimethyl-phenoxy)propyl]-1-oxo-7-(1,3,5-trimethylpyrazol-4-yl)-4,5-dihydro-3H-[1,4]diazepino[1,2-a]indol-2-yl]-1-ethyl-indazole-4-carboxylic acid]	0.0011	–	0.92
Cc1cc(OCCCc2c3n(c4c(-c5c(C)ncnc5C)c(Cl)ccc24)[C@H](C)CN(c2nn(C)c4cccc(C(=O)O)c24)C3=O)cc(C)c1Cl [Example 273, 3-[(4R)-7-chloro-10-[3-(4-chloro-3,5-dimethyl-phenoxy)propyl]-6-(4,6-dimethylpyrimidin-5-yl)-4-methyl-1-oxo-3,4-dihydropyrazino[1,2-a]indol-2-yl]-1-methyl-indazole-4-carboxylic acid]	< 0.001	–	4.1
Cc1cc(OCCCc2c3n(c4c(-c5c(C)nn(C)c5C)c(Cl)ccc24)[C@H](C)CN(c2cn(C)c4cc(-c5nnn(C)n5)ccc24)C3=O)cc(C)c1Cl [Example 370, (R)-7-Chloro-10-(3-(4-chloro-3,5-dimethylphenoxy)propyl)-4-methyl-2-(1-methyl-6-(2-methyl-2H-tetrazol-5-yl)-1H-indol-3-yl)-6-(1,3,5-trimethyl-1H-pyrazol-4-yl)-3,4-dihydropyrazino[1,2-a]indol-1(2H)-one]	0.0028	–	4.5
Cc1cc(OCCCc2c3n(c4c(-c5c(C)nn(C)c5C)c(Cl)ccc24)[C@H](C)CN(c2cn(C)c4c(C)cc(C(=O)O)cc24)C3=O)cc(C)c1Cl [Example 145, (R)-3-(7-chloro-10-(3-(4-chloro-3,5-dimethylphenoxy)propyl)-4-methyl-1-oxo-6-(1,3,5-trimethyl-1H-pyrazol-4-yl)-3,4-dihydropyrazino[1,2-a]indol-2(1H)-yl)-1,7-dimethyl-1H-indole-5-carboxylic acid]	< 0.001	–	0.36
Cc1cc(OCCCc2c3n(c4c(-c5c(C)ncnc5C)c(Cl)ccc24)[C@H](C)CN(c2ccc(C(=O)O)c4cccnc24)C3=O)cc(C)c1Cl [Example 224, 8-[(4R)-7-chloro-10-[3-(4-chloro-3,5-dimethyl-phenoxy)propyl]-6-(4,6-dimethylpyrimidin-5-yl)-4-methyl-1-oxo-3,4-dihydropyrazino[1,2-a]indol-2-yl]quinoline-5-carboxylic acid]	< 0.001	–	2.5
Cc1cc(OCCCc2c3n(c4c(-c5c(C)nn(C)c5C)c(Cl)ccc24)[C@H](C)CN(c2cn(CCN4CCOCC4)c4cc(C(N)=O)ccc24)C3=O)cc(C)c1Cl [Example 402, (R)-3-(7-Chloro-10-(3-(4-chloro-3,5-dimethylphenoxy)propyl)-4-methyl-1-oxo-6-(1,3,5-trimethyl-1H-pyrazol-4-yl)-3,4-dihydropyrazino[1,2-a]indol-2(1H)-yl)-1-(2-morpholinoethyl)-1H-indole-6-carboxamide]	0.0049	–	1.1
Cc1cc(OCCCc2c3n(c4c(-c5c(C)nn(CC6CCN(C)C6)c5C)c(Cl)ccc24)[C@H](C)CN(c2cn(C)c4ccc(C(=O)O)cc24)C3=O)cc(C)c1Cl (stereo partly drawn) [Example 261, 3-((4R)-7-chloro-10-(3-(4-chloro-3,5-dimethylphenoxy)propyl)-6-(3,5-dimethyl-1-((1-methylpyrrolidin-3-yl)methyl)-1H-pyrazol-4-yl)-4-methyl-1-oxo-3,4-dihydropyrazino[1,2-a]indol-2(1H)-yl)-1-methyl-1H-indole-5-carboxylic acid]	< 0.001	–	0.53
Cc1cc(OCCCc2c3n(c4c(-c5c(C)nn(C)c5C)c(Cl)ccc24)[C@H](C)CN(c2cn(C)c4cc(C(N)=O)ccc24)C3=O)cc(C)c1Cl [Example 277, 3-[(4R)-7-chloro-10-[3-(4-chloro-3,5-dimethyl-phenoxy)propyl]-4-methyl-1-oxo-6-(1,3,5-trimethylpyrazol-4-yl)-3,4-dihydropyrazino[1,2-a]indol-2-yl]-1-methyl-indole-6-carboxamide]	0.0066	–	1.4
COC(=O)c1ccc2c(c1)c(N1C[C@@H](C)n3c(c(CCCOc4cc(C)c(Cl)c(C)c4)c4ccc(Cl)c(-c5c(C)nn(C)c5C)c43)C1=O)cn2C (single isomer, unassigned) [Example 204]	0.0011	–	1
Cc1cc(N2C[C@@H](C)n3c(c(CCCOc4cc(C)c(Cl)c(C)c4)c4ccc(Cl)c(-c5c(C)ncnc5C)c43)C2=O)c2c(c1)c(C)c(C(=O)O)n2C [Example 339, (R)-7-(7-Chloro-10-(3-(4-chloro-3,5-dimethylphenoxy)propyl)-6-(4,6-dimethylpyrimidin-5-yl)-4-methyl-1-oxo-3,4-dihydropyrazino[1,2-a]indol-2(1H)-yl)-1,3,5-trimethyl-1H-indole-2-carboxylic acid]	< 0.001	–	0.32
Cc1cc(N2C[C@@H](C)n3c(c(CCCOc4cc(C)c(Cl)c(C)c4)c4ccc(Cl)c(-c5c(C)ncnc5C)c43)C2=O)c2c(c1)cc(C(=O)O)n2C [Example 272, 7-[(4R)-7-chloro-10-[3-(4-chloro-3,5-dimethyl-phenoxy)propyl]-6-(4,6-dimethylpyrimidin-5-yl)-4-methyl-1-oxo-3,4-dihydropyrazino[1,2-a]indol-2-yl]-1,5-dimethyl-indole-2-carboxylic acid]	< 0.001	–	0.21
COc1cc(N2C[C@@H](C)n3c(c(CCCOc4cc(C)c(Cl)c(C)c4)c4ccc(Cl)c(-c5c(C)nn(C)c5C)c43)C2=O)c2cc(C(=O)O)n(C)c2c1 [Example 334, (M, R)-4-(7-Chloro-10-(3-(4-chloro-3,5-dimethylphenoxy)propyl)-4-methyl-1-oxo-6-(1,3,5-trimethyl-1H-pyrazol-4-yl)-3,4-dihydropyrazino[1,2-a]indol-2(1H)-yl)-6-methoxy-1-methyl-1H-indole-2-carboxylic acid]	< 0.001	1.2	–
CCn1cc(C(=O)O)c2c(N3C[C@@H](C)n4c(c(CCCOc5cc(C)c(Cl)c(C)c5)c5ccc(Cl)c(-c6c(C)nn(C)c6C)c54)C3=O)cccc21 [Example 173, 4-[(4R)-7-chloro-10-[3-(4-chloro-3,5-dimethyl-phenoxy)propyl]-4-methyl-1-oxo-6-(1,3,5-trimethylpyrazol-4-yl)-3,4-dihydropyrazino[1,2-a]indol-2-yl]-1-ethyl-indole-3-carboxylic acid]	0.0027	–	3.3
Cc1cc(OCCCc2c3n(c4c(-c5c(C)nn(C)c5C)c(Cl)ccc24)CCCN(c2cc(C(=O)O)cc4cnn(C)c24)C3=O)cc(C)c1Cl [Example 123, 7-(8-Chloro-11-(3-(4-chloro-3,5-dimethylphenoxy)propyl)-1-oxo-7-(1,3,5-trimethyl-1H-pyrazol-4-yl)-4,5-dihydro-1H-[1,4]diazepino[1,2-a]indol-2(3H)-yl)-1-methyl-1H-indazole-5-carboxylic acid]	< 0.001	–	6.9
COCCn1ncc2c(C(=O)O)cc(N3CCCn4c(c(CCCOc5cc(C)c(Cl)c(C)c5)c5ccc(Cl)c(-c6c(C)nn(C)c6C)c54)C3=O)cc21 [Example 82, 6-[8-Chloro-11-[3-(4-chloro-3,5-dimethyl-phenoxy)propyl]-1-oxo-7-(1,3,5-trimethylpyrazol-4-yl)-4,5-dihydro-3H-[1,4]diazepino[1,2-a]indol-2-yl]-1-(2-methoxyethyl)indazole-4-carboxylic acid]	< 0.001	–	4.8
COc1ccc(N2C[C@@H](C)n3c(c(CCCOc4cc(C)c(Cl)c(C)c4)c4ccc(Cl)c(-c5c(C)nn(C)c5C)c43)C2=O)c2c1cc(C(=O)O)n2Cc1ccccn1 [Example 313, 7-[(4R)-7-chloro-10-[3-(4-chloro-3,5-dimethyl-phenoxy)propyl]-4-methyl-1-oxo-6-(1,3,5-trimethylpyrazol-4-yl)-3,4-dihydropyrazino[1,2-a]indol-2-yl]-4-methoxy-1-(2-pyridylmethyl)indole-2-carboxylic acid]	< 0.001	–	< 0.2
COc1ccc(N2C[C@@H](C)n3c(c(CCCOc4cc(C)c(Cl)c(C)c4)c4ccc(Cl)c(-c5c(C)nn(C)c5C)c43)C2=O)c2cc(C(=O)O)n(C)c12 [Example 344, (M, R)-4-(7-Chloro-10-(3-(4-chloro-3,5-dimethylphenoxy)propyl)-4-methyl-1-oxo-6-(1,3,5-trimethyl-1H-pyrazol-4-yl)-3,4-dihydropyrazino[1,2-a]indol-2(1H)-yl)-7-methoxy-1-methyl-1H-indole-2-carboxylic acid]	< 0.001	1.3	–
